# Results taken from US5556854A, “Pyridopyrimidinediones, processes for their preparation and their use as drugs” (Hoechst Aktiengesellschaft, priority 1993, dated 1996).
# System: ischemic skeletal muscle (gastrocnemius-plantaris-soleus group)
# Test: Contractility of the skeletal muscle after chronic ischemia (PVD fatigue model)
# Type: in vivo, male Wistar rats
# Details: PVD fatigue model: 6 mg/kg po, 7 days; after 5 minutes of stimulation, 24 h after last administration
# Text: B) Action on the contractility of the skeletal muscle after chronic ischemia Ideas about the pathophysiology of chronic peripheral arterial occlusive disease have changed in recent years as interest has shifted increasingly from the macrocirculation to the microcirculation=disorders in the microcirculation manifest themselves in an inadequate supply of substrates with consequent tissue ischemia, which in turn leads to impairment of the function of the extremity in question. The compounds according to the invention were tested for their function-improving action by means of measurements of the contractile force in the ischemic skeletal muscle using the experimental set-up described below. The experimental animals used were male Wistar rats with a body weight of 380 to 410 g. With the animals under hexobarbital narcosis (®[…] Sodium, 200 mg/kg body weight ip), a monolateral ligature of the right femoral artery was made in the groin. After dusting with penicillin sulfonamide powder for the antibiotic protection of the wound, the small surgical wound was closed and the animals were observed continuously until fully awake. One week later, oral administration of the substance with a stomach tube was started (6 mg/kg body weight, carboxymethyl cellulose sodium suspension) and was continued for 7 days (single administration per day, ca. 7.30 am to 8.30 am). The contractile force was measured 24 h after the last administration of the substance so as to exclude acute effects, the experimental protocol being as follows: The animals were narcotized with ®Nembutal (pentobarbital sodium, 35 mg/kg body weight ip), the muscles of the extremity in question were exposed (gastrocnemius-plantaris-soleus group) and the tendon was connected to a force transducer with a preload of 50 g. A superfusion with isotonic solution (37° C.) served to avoid dehydration and cooling. The mean arterial blood pressure was recorded continuously via a cannulated carotid artery with the aid of a hemodynamometer in order to monitor the physiological state of the animals during the experiment. All the animals breathed spontaneously through an inserted endotracheal tube. After these preparations had been made, the muscle was caused to contract by direct electrical stimulation (2.5 mA, 2 Hz) (Stimulator I, Hugo Sachs, Federal Republic of Germany). The measurement parameter used for the action of the preparation was the absolute contractile force in grams after 5 minutes of stimulation. The change in the contractile force in comparison with the ischemic control muscle is given as the percentage change at this time (see Table 2).
row,Compound,Change in the contractile force in comparison with the ischemic control muscle
1,Cn1c(=O)[nH]c2c(c1=O)CN(C(C(=O)O)c1ccccc1Cl)CC2 (stereo not shown) [Compound 20],+137%
2,CCn1c2c(c(=O)n(C)c1=O)CN(Cc1ccccc1Cl)CC2 [Compound 16],+148%
3,C=C(C)CN1CCc2[nH]c(=O)n(C)c(=O)c2C1 [Compound 26],+114%
4,Cn1c(=O)[nH]c2c(c1=O)CN(CCCO)CC2 [Compound 37],+45%
5,"Cl.Cn1c(=O)[nH]c2c(c1=O)CN(Cc1ccccc1)CC2 [Compound 2, 6-Benzyl-3-methyl-5,6,7,8-tetrahydro-1H-pyrido[4,3-d]-pyrimidine-2,4-dione hydrochloride]",+136%
6,O=c1[nH]c2c(c(=O)[nH]1)CN(Cc1ccccc1)CC2 [Compound 23],+129%
7,"Cn1c(=O)[nH]c2c(c1=O)CN(CCO)CC2 [Compound 8, 6-(2-Hydroxyethyl)-3-methyl-5,6,7,8-tetrahydro-1H-pyrido[4,3-d]pyrimidine-2,4-dione]",+151%
